Assay results reported in patent US20170049100A1 (priority 2014, published 2017).
Values after ≈ are worked out from the molar mass of the structure shown.

Tested on: resistant strain of Pythium sp.
Assay: In vitro sensitivity of a resistant strain of Pythium sp. (mycelium growth, optical density at 590 nm)
Assay type: cell-based
Details: 168 h, 500 spores/mL, 7 days at 20° C., read-out: EC50 (effective concentration of the active ingredient which reduces the growth of the phytopathogen by 50%)

CCCCCCCCO [octanol, octan-1-ol]
EC50: 1.3 ng/mL (≈ 9.98 nM)
